Test results: the supplement of paper PMC4858399

Columns and labels:
[1] = tested on: Caenorhabditis elegans N2; test: lowest effective concentration for larval growth inhibition (size below effect threshold); higher = less potent; details: exposure time 48 h
In short: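 Each well of a 96-well plate received 50 C. elegans N2 L1 larvae, which grew for 48 h at 20°C in K-medium containing killed bacteria, 1% DMSO and the chemical at 0.5, 1, 5, 10, 50, 100 or 200 µM. A Biosort recorded the extinction of every worm as its size, and these readings were log-transformed and averaged per well. The lowest effective concentration is defined as the first dose at which the plate-adjusted mean size falls below the threshold and stays below it at all higher doses; that threshold is 5.665.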

[2] = tested on: Caenorhabditis elegans N2; test: mean nematode size ln(EXT) after 48 h, plate-adjusted (DMSO control set to 6) (ln(EXT), control-adjusted); higher = larger nematodes / less growth inhibition; details: exposure time 48 h
In short: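 A growth model removed debris from Biosort extinction readings taken on each worm. These worms were synchronised C. elegans N2 L1 larvae, 50 per well in 4–6 wells per treatment, grown for 48 h at 20°C in K-medium with killed OP50, 1% DMSO and 0.5–200 µM chemical. Readings were natural-logged and averaged by well to give mean size. On each plate, the vehicle control mean was subtracted and 6 was added.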

SMILES | lowest effective concentration [1] [µM] | mean nematode size ln(EXT) (ln) ([2]; 0.5 µM) | mean nematode size ln(EXT) (ln) ([2]; 1 µM) | mean nematode size ln(EXT) (ln) ([2]; 5 µM) | mean nematode size ln(EXT) (ln) ([2]; 10 µM) | mean nematode size ln(EXT) (ln) ([2]; 50 µM) | mean nematode size ln(EXT) (ln) ([2]; 100 µM) | mean nematode size ln(EXT) (ln) ([2]; 200 µM)
Oc1ccccc1 [Phenol] | > 200 | 6.09 | 5.98 | 6.01 | 5.98 | 5.94 | 5.92 | 6.02
N[C@@H](Cc1c[nH]c2ccccc12)C(=O)O [L-Tryptophan] | > 200 | 5.91 | 5.87 | 5.89 | 5.86 | 5.85 | 5.96 | 5.7
Oc1ccc(O)cc1 [Hydroquinone] | > 200 | 5.99 | 6.02 | 6.04 | 6.02 | 6.1 | 6.09 | 5.72
CN(C)C(=O)NC1(c2ccccc2)CCN(CC[C@@]2(c3ccc(F)c(F)c3)CN(C(=O)c3ccccc3)CCO2)CC1 | > 200 | 5.89 | 5.86 | 5.86 | 5.8 | 5.9 | 5.92 | 5.68
NS(=O)(=O)c1cc2c(cc1Cl)NCNS2(=O)=O [Hydrochlorothiazide] | > 200 | 5.86 | 5.85 | 5.85 | 5.83 | 5.76 | 5.46 | 5.83
O=c1c(O)c(-c2ccc(O)c(O)c2)oc2cc(O)cc(O)c12 [2-(3,4-Dihydroxy-phenyl)-3,5,7-trihydroxy-chromen-4-one] | > 200 | 5.8 | 5.86 | 5.86 | 5.79 | 4.75 | 5.87 | 5.75
CN(C)C=O [N,N-Dimethylformamide] | > 200 | 5.86 | 5.92 | 5.88 | 5.84 | 6.01 | 5.79 | 5.78
CCCCCCCCCCCCCCC [Pentadecane] | > 200 | 5.88 | 5.95 | 5.94 | 6.03 | 5.95 | 5.87 | 5.74
CC(=O)OCC(COC(C)=O)OC(C)=O [Triacetin] | > 200 | 5.85 | 5.99 | 5.89 | 5.85 | 5.97 | 5.78 | 5.73
CCCCCCCCC(=O)O [Nonanoic acid] | > 200 | 5.86 | 5.94 | 5.94 | 5.91 | 5.89 | 5.93 | 5.83
CCCCC(CC)CO (centres undefined) [2-Ethyl-1-hexanol] | > 200 | 5.86 | 5.82 | 5.79 | 5.75 | 5.7 | 5.85 | 5.92
CC[C@H](C)C(=O)O[C@H]1C[C@H](O)C=C2C=C[C@H](C)[C@H](CC[C@@H](O)C[C@@H](O)CC(=O)O)[C@H]21 [Pravastatin sodium] | > 200 | 5.99 | 5.97 | 5.93 | 5.92 | 5.91 | 5.79 | 5.81
CCO[Si](CCCNC(N)=O)(OCC)OCC [3-Ureidopropyltriethoxysilane] | > 200 | 5.84 | 5.83 | 5.84 | 5.8 | 5.74 | 5.63 | 5.84
CC(C)(O)c1ccc(CNC(=O)c2cccnc2Oc2ccc3nonc3c2)cc1 | > 200 | 5.94 | 5.81 | 5.9 | 5.71 | 5.92 | 5.81 | 5.8
Nc1c(Cl)c(Cl)nc(C(=O)O)c1Cl [Picloram] | > 200 | 6.16 | 6.06 | 6.09 | 6.14 | 6.12 | 6.14 | 5.97
CCNc1nc(NC(C)C)nc(SC)n1 [Ametryn] | > 200 | 6.09 | 6.82 | 6.12 | 6.27 | 6.45 | 6.38 | 5.72
CC(C)c1cccc(C(C)C)c1NC(=O)NS(=O)(=O)c1cc(C(C)(C)O)co1 | > 200 | 5.93 | 5.86 | 5.97 | 5.91 | 6 | 5.8 | 5.79
COc1ccc([N+](=O)[O-])cc1N [2-methoxy-5-nitroaniline] | > 200 | 5.71 | 5.76 | 5.68 | 5.77 | 5.83 | 5.75 | 5.82
O=C(OCCCCCCOC(=O)c1ccccc1)c1ccccc1 [1,6-Hexanediol dibenzoate] | 50 | 5.83 | 5.82 | 5.69 | 5.68 | 5.63 | 5.49 | 5.57
CC1=C(/C=C/C(C)=C/C=C/C(C)=C/CO)C(C)(C)CCC1 [Retinol] | > 200 | 5.92 | 5.89 | 5.91 | 5.75 | 5.9 | 5.84 | 5.68
CCOCN(C(=O)CCl)c1c(C)cccc1CC [Acetochlor] | > 200 | 6.04 | 6 | 6.11 | 6.25 | 6.04 | 6.05 | 6.15
CCOc1nc(F)cc2nc(S(=O)(=O)Nc3c(Cl)cccc3Cl)nn12 [Diclosulam] | > 200 | 6.11 | 6.13 | 6.09 | 6.14 | 6.15 | 6.17 | 5.79
O=C(O)c1cc(/N=N/c2ccc(S(=O)(=O)Nc3ccccn3)cc2)ccc1O [Sulfasalazine] | > 200 | 5.85 | 5.91 | 5.87 | 5.87 | 5.92 | 5.9 | 5.94
Cc1cccc2ccccc12 [1-Methylnaphthalene] | > 200 | 6.08 | 6.13 | 5.94 | 6.03 | 5.99 | 6.02 | 6.02
C1CC2OC2CC1C1CO1 (mixture of isomers) [Vinylcyclohexene dioxide, mixture of isomers] | > 200 | 5.91 | 5.97 | 5.93 | 5.74 | 5.93 | 5.91 | 5.7
Oc1cccc(O)c1 [Resorcinol] | > 200 | 5.81 | 5.86 | 5.94 | 5.84 | 5.88 | 5.84 | 5.78
O=Cc1ccco1 [Furfural] | > 200 | 5.92 | 5.88 | 5.88 | 5.91 | 5.95 | 5.83 | 5.82

SMILES | lowest effective concentration [1] [µM] | mean nematode size ln(EXT) (ln) ([2]; 0.5 µM) | mean nematode size ln(EXT) (ln) ([2]; 1 µM) | mean nematode size ln(EXT) (ln) ([2]; 5 µM) | mean nematode size ln(EXT) (ln) ([2]; 10 µM) | mean nematode size ln(EXT) (ln) ([2]; 50 µM) | mean nematode size ln(EXT) (ln) ([2]; 100 µM) | mean nematode size ln(EXT) (ln) ([2]; 200 µM)
CCOC(=O)CC(SP(=O)(OC)OC)C(=O)OCC (centres undefined) [Malaoxon] | > 200 | 5.9 | 5.85 | 6.21 | 5.99 | 5.89 | 5.94 | 5.83
O=C(O)c1cccc(Oc2ccccc2)c1 [3-Phenoxybenzoic acid] | > 200 | 5.87 | 5.85 | 5.89 | 5.87 | 5.83 | 5.83 | 5.91
Cc1ccc(S(=O)(=O)NC(=O)NN2CCCCCC2)cc1 [Tolazamide] | > 200 | 5.93 | 5.92 | 5.93 | 5.91 | 5.61 | 5.87 | 5.79
OCCOCCOCCO [Triethylene glycol] | > 200 | 5.84 | 5.84 | 5.95 | 5.98 | 5.88 | 5.87 | 5.84
O=C(Oc1ccccc1)c1cccc(C(=O)Oc2ccccc2)c1 [Diphenyl isophthalate] | > 200 | 5.87 | 5.89 | 5.87 | 5.87 | 5.94 | 5.94 | 5.7
CCNc1cccc(C)c1 [N-Ethyl-3-methylaniline] | 200 | 5.68 | 5.72 | 5.59 | 5.59 | 5.63 | 5.72 | 5.63
O=c1n(Cl)c(=O)n(Cl)c(=O)n1Cl [Symclosene] | > 200 | 5.9 | 5.76 | 5.62 | 5.82 | 5.73 | 5.69 | 5.74
COc1ccccc1N [2-Anisidine] | > 200 | 5.76 | 5.78 | 5.84 | 5.82 | 5.83 | 5.81 | 5.78
CC(=O)OCCOCCOCCOC(C)=O [Triethylene Glycol Diacetate] | > 200 | 5.82 | 5.87 | 5.88 | 5.91 | 5.83 | 5.96 | 5.82
Nc1nc(=O)c2nc(CNc3ccc(C(=O)N[C@@H](CCC(=O)O)C(=O)O)cc3)cnc2[nH]1 [Folic acid] | > 200 | 6.04 | 5.96 | 5.91 | 6.04 | 6.02 | 6 | 5.82
CC(C)=CCC/C(C)=C/CO [Geraniol] | > 200 | 5.92 | 5.94 | 5.89 | 6.03 | 5.99 | 6.04 | 5.72
CNC(=O)/C=C(\C)OP(=O)(OC)OC [Monocrotophos] | > 200 | 5.81 | 5.76 | 5.74 | 5.78 | 5.79 | 5.77 | 6.07
Cc1ccc(O)c(C)c1 [2,4-Dimethylphenol] | > 200 | 5.82 | 5.97 | 5.96 | 5.87 | 5.85 | 5.84 | 5.72
Cn1c(=O)c2c(ncn2C)n(C)c1=O [Caffeine] | > 200 | 5.87 | 5.94 | 5.87 | 5.91 | 5.94 | 5.85 | 5.75
Oc1cc(Cl)c(Cl)cc1Cl [2,4,5-Trichlorophenol] | > 200 | 5.83 | 5.83 | 5.83 | 5.78 | 5.77 | 3.41 | 5.81
CN1CCCC1=O [N-Methyl-2-pyrrolidone] | > 200 | 5.94 | 5.92 | 5.89 | 5.81 | 5.8 | 5.89 | 5.84
Cc1cc(O)ccc1Cl [4-Chloro-3-methylphenol] | > 200 | 5.83 | 5.8 | 5.79 | 5.82 | 5.85 | 5.78 | 5.68
Cc1ccccc1O [2-Methylphenol] | > 200 | 5.98 | 5.9 | 5.94 | 5.82 | 5.92 | 5.94 | 5.81
CCCN(CCC)N=O [N-Nitrosodipropylamine] | > 200 | 5.88 | 5.93 | 5.92 | 5.84 | 5.87 | 5.72 | 5.97
Cc1cc(C)c(O)c(C)c1 [2,4,6-Trimethylphenol] | > 200 | 5.76 | 5.87 | 5.85 | 5.84 | 5.87 | 5.86 | 5.76
CCCC(=O)OCC [Ethyl butyrate] | > 200 | 5.9 | 5.93 | 5.96 | 6.03 | 5.94 | 5.91 | 5.82
O=C(O)C(F)(F)C(F)(F)C(F)(F)C(F)(F)C(F)(F)F [Perfluorohexanoic acid] | > 200 | 5.47 | 5.55 | 5.6 | 5.67 | 5.69 | 5.73 | 5.86
CCCCc1ccccc1 [Butylbenzene] | > 200 | 5.65 | 5.67 | 5.69 | 5.67 | 5.53 | 5.6 | 5.75
O=C(N[C@H]1CN2CCC1CC2)c1ccc2c(c1)OCCO2 | > 200 | 5.82 | 5.83 | 5.8 | 5.8 | 5.81 | 5.81 | 5.67
O=C(O)c1ccccc1C(=O)OCc1ccccc1 [Benzyl hydrogen phthalate] | > 200 | 5.72 | 5.73 | 5.79 | 5.84 | 5.73 | 5.67 | 5.74
CCCCc1ccc2c(n1)[C@@H](c1ccc(OC)cc1C[C@H](C)C(=O)O)[C@H](C(=O)O)[C@H]2c1ccc2c(c1)OCO2 | > 200 | 5.82 | 5.87 | 5.83 | 6.32 | 5.91 | 5.95 | 5.88
